Measurements: patent publication US20060166271A1, “Non-radioactive schilling test” (priority 2003, published 2006)
“And” between values parts separate entries of the source, which are not always exact repeats. Identical values can stand only once.

Experiments:
[1] = Vitamin B12 absorption from serum holo-TC and TC saturation before and after oral vitamin B12, patients with suspected malabsorption; assay type: in vivo, human; details: individual patients with Crohn's disease, day 1-day 0, oral 3 times 9 μg
Source text: The subjects participating in the study were 31 healthy subjects recruited in October 2002. None of them suffered from known disorders related to vitamin B12 deficiency. Persons with chronic systemic disease, persons taking any kind of medical treatment, including vitamin tablets within the past week and persons not being able to give written informed consent were excluded. The age of the healthy subjects ranged from to 25 to 57 (mean 40) years. There were 9 men and 22 women. We further included seven patients (age 22-39 years, five men and two women) who had been referred to the out-patient clinic of internal medicine department during 2003 because vitamin B12 malabsorption was suspected. Three of the seven patients have previously been diagnosed as Crohn's disease. […]
The absorption of vitamin B12 was evaluated from analysis of serum vitamin B12, total TC, and holo-TC on samples obtained before and after oral administration of vitamin B12. […]
Serum vitamin B12 was determined by a commercial method (Bayer corporation, NY) on a Centaur equipment (analytical imprecision<10%). Serum total TC and holo-TC were measured by ELISA as recently described (Nexø et al., 2000; 2002), but modified to allow the use of an automated ELISA analyser (BEP-2000, Dade Behring, Germany). […] Haematological parameters were analysed on the Coulter Counter (Beckman Coulter CA). […]

[2] = Vitamin B12 absorption from serum vitamin B12, total TC and holo-TC before and after oral vitamin B12, healthy subjects; assay type: in vivo, human; details: for Holo-TC, median: serum
Source text: The subjects participating in the study were 31 healthy subjects recruited in October 2002. None of them suffered from known disorders related to vitamin B12 deficiency. Persons with chronic systemic disease, persons taking any kind of medical treatment, including vitamin tablets within the past week and persons not being able to give written informed consent were excluded. The age of the healthy subjects ranged from to 25 to 57 (mean 40) years. There were 9 men and 22 women. We further included seven patients (age 22-39 years, five men and two women) who had been referred to the out-patient clinic of internal medicine department during 2003 because vitamin B12 malabsorption was suspected. Three of the seven patients have previously been diagnosed as Crohn's disease. The diagnosis of the remaining four patients was not clear. Written informed consent was obtained from all subjects, and the Research Ethics Committee of Aarhus County approved the study protocol (2002.0224).
The absorption of vitamin B12 was evaluated from analysis of serum vitamin B12, total TC, and holo-TC on samples obtained before and after oral administration of vitamin B12.
(§1) In healthy subjects samples were taken at 8:00 a.m. on the day before vitamin B12 intake (−1) and on day 0, 1, 2, and 6. After the blood sample was removed on day 0, an oral dose of 9 μg vitamin B12 (Natur Drogeriet A/S, Hoerning, Denmark) was given three times, with 6 h between the doses (8 a.m., 2 p.m., and 8 p.m. (time points were allowed to deviate ±45 min). One healthy subject was unavailable for delivering a blood sample on day 6. The absorption of vitamin B12 in seven patients was evaluated by the Schilling test I and by the design mentioned above except that the blood samples were obtained only on day 0 and day 1. The Schilling test I was performed after our alternative approach.
The vitamin B12 tablets were given with either water or orange juice. The subjects were allowed to have a light breakfast 30 to 60 min before blood sampling, not including any diary products, but were otherwise allowed to eat their normal diet. The blood samples were centrifuged within 60 minutes and were stored at −80° C. until further processed.
Serum vitamin B12 was determined by a commercial method (Bayer corporation, NY) on a Centaur equipment (analytical imprecision<10%). Serum total TC and holo-TC were measured by ELISA as recently described (Nexø et al., 2000; 2002), but modified to allow the use of an automated ELISA analyser (BEP-2000, Dade Behring, Germany). The following modification was performed; all incubations were performed at 37° C. The analytical imprecision was 7% for total TC (mean=934 pmol/L, n=91) and 8% for holo-TC (mean=38 pmol/L, n=41). The controls were run over 12 months for total TC and 6 months for holo-TC. The reference interval was established from analysing 161 samples obtained from healthy blood donors (age interval; 21-65). The reference interval was 700-1400 pmol/L for total TC, ≧50 pmol/L for holo-TC and ≧0.05 for TC saturation. Haematological parameters were analysed on the Coulter Counter (Beckman Coulter CA). Plasma creatinine was measured using the Jaffe method and a Roche Cobas integra 700 autoanalyzer (analytical imprecision <3%).
Alterations (increase or decrease) in parameters as a function of time were analysed by comparing the changes obtained on the same individuals relative to baseline (day 0) with the theoretical median “0” assigned for day 0. […] P-values <5% were regarded as statistically significant. Data were analysed using SPSS10.0 (SPSS Inc.) and the GraphPad (Prism2) software.

[3] = Schilling test I (urinary excretion of radioactive vitamin B12 over 24 hours); assay type: in vivo, human; details: individual patients with Crohn's disease; 1 μg oral Co-57 tagged vitamin B12, 24 hour urine; normal 10-40%
Experimental: as §1
The Schilling test I was performed as described previously (Chanarin, 1979). Briefly, a fasting patient is given a 1 μg oral dose of vitamin B12, which is tagged with radioactive cobalt (Co-57). Two hours after the oral dose the patient is then injected intramuscularly with 1000 μg of non-labeled vitamin B12. A 24 hour urine collection is initiated. The percentage of the administered dose excreted in the urine over 24 hours is then determined. Urinary excretion of 10-40% of the administered dose is considered normal.

[4] = oral dose; cited from earlier work
[5] = DAY 1 after oral 3 times 9 μg vitamin B12, 31 healthy subjects
[6] = DAY 2 after oral 3 times 9 μg vitamin B12, 31 healthy subjects
[7] = DAY 6 after oral 3 times 9 μg vitamin B12, 31 healthy subjects
[8] = control subjects after omitting outliers (n=2)
[9] = one day after oral dose of three times 9 μg, healthy subjects (discussion)
[10] = relative to baseline (day 0), oral 3 times 9 μg, healthy subjects
[11] = relative to baseline (day 0), oral 3 times 9 μg, n=31 healthy subjects

cobalamin [vitamin B12]
Increase in TC saturation after vitamin B12 intake [1]: 0.004 and 0.01 (2×) | Increase in holo-TC after vitamin B12 intake [1]: 3 pmol/L and 7 pmol/L and 14 pmol/L | Serum vitamin B12, median [2, 5]: 279 pmol/L | TC saturation (holo-TC/total-TC), median [2, 5]: 0.13 fraction | Holo-TC, median [2, 5]: 118 pmol/L | Serum vitamin B12, median [2, 6]: 253 pmol/L | TC saturation (holo-TC/total-TC), median [2, 6]: 0.11 fraction | Holo-TC, median [2, 6]: 87 pmol/L | Serum vitamin B12, median [2, 7]: 260 pmol/L | TC saturation (holo-TC/total-TC), median [2, 7]: 0.09 fraction | Holo-TC, median [2, 7]: 80 pmol/L | Minimum increase for TC saturation (day 1-day 0) [2, 8]: 0.02 | Minimum increase for holo-TC (day 1-day 0) [2, 8]: 15 pmol/L | Increase of TC saturation, median value [2, 9]: around 50% | Increase of holo TC, median value [2, 9]: around 50% | Absolute increase in serum vitamin B12, median (range) [2, 10]: 36 (−27-290) pmol/L | Percentage increase in serum vitamin B12, median (range) [2, 10]: 14 (−8-+51) % and 14% | Maximal absolute increase in TC saturation, median (range) [2, 11]: 0.04 (0-0.23) fraction | Maximal absolute increase in holo-TC, median (range) [2, 11]: 34 (0-149) pmol/L | Maximal percentage increase in TC saturation, median (range) [2, 11]: 52 (−2-+128) % | Maximal percentage increase in holo-TC, median (range) [2, 11]: 39 (0-+108) % | Schilling test I, percentage of vitamin B12 excreted in the urine [3]: 2% and 10% and 15% | Refractory phase with less absorption after ingestion of a dose [4]: about 3 hours
